Experimental data reported in the supplement of paper PMC9663587.

Key:
[1] = compound: C=CC(=O)Nc1ccc(C(=O)Nc2[nH]nc3c2CN(C(=O)N[C@H](CN(C)C)c2ccccc2)C3(C)C)cc1 [YKL-5-124]; experiment: increase in dead-cell fraction, 72 h; higher = more death;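 also: breast cancer cell lines in 384-well plates, stained with Hoechst plus LIVE/DEAD far red dye and imaged, cells above an LDR intensity threshold counted dead, Hoechst-negative corpses included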
[2] = compound: CC(=O)c1c(C)c2cnc(Nc3ccc(N4CCN(CCOCCOCCOCCNC(=O)COc5cccc6c5C(=O)N(C5CCC(=O)NC5=O)C6=O)CC4)cn3)nc2n(C2CCCC2)c1=O [BSJ-03-123]; experiment: as above
[3] = compound: CC(=O)c1c(C)c2cnc(Nc3ccc(N4CCNCC4)cn3)nc2n(C2CCCC2)c1=O; experiment: as above
[4] = compound: CCN1CCN(Cc2ccc(Nc3ncc(F)c(-c4cc(F)c5nc(C)n(C(C)C)c5c4)n3)nc2)CC1; experiment: as above
[5] = compound: T1, CCOc1cc2ncc(C#N)c(Nc3ccc(OCc4ccccn4)c(Cl)c3)c2cc1NC(=O)/C=C/CN(C)C [Neratinib/HKI272]; experiment: as above
[6] = compound: CCc1cnn2c(NCc3ccc[n+]([O-])c3)cc(N3CCCC[C@H]3CCO)nc12; experiment: as above
[7] = compound: CN(C)C(=O)c1cc2cnc(Nc3ccc(N4CCNCC4)cn3)nc2n1C1CCCC1 [LEE011/Ribociclib]; experiment: as above
[8] = compound: CN(C)C/C=C/C(=O)Nc1ccc(C(=O)N2CCC[C@@H](Nc3ncc(Cl)c(-c4c[nH]c5ccccc45)n3)C2)cc1 [THZ531]; experiment: as above
[9] = compound: T2, CN(C)C/C=C/C(=O)Nc1ccc(C(=O)Nc2cccc(Nc3ncc(Cl)c(-c4c[nH]c5ccccc45)n3)c2)cc1 [THZ1]; experiment: as above
[10] = compound: CN1CC[C@H](c2c(O)cc(O)c3c(=O)cc(-c4ccccc4Cl)oc23)[C@H](O)C1 [Flavopiridol]; experiment: as above
[11] = compound: T1, Neratinib/HKI272; experiment: GR value, 72 h; higher = faster growth (1 = untreated, <0 = killing);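 also: breast cancer and non-malignant breast epithelial lines, nine half-log doses, viable cells counted by Hoechst and LIVE/DEAD dye imaging versus time-zero plates and DMSO controls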
[12] = compound: T2, THZ1; experiment: as above

PDX1328
increase in dead-cell fraction ([1]; 0.001 µM): 0.0057
increase in dead-cell fraction ([1]; 0.003162 µM): 0.0011
increase in dead-cell fraction ([1]; 0.01 µM): 0.0128
increase in dead-cell fraction ([1]; 0.03162 µM): 0.0082
increase in dead-cell fraction ([1]; 0.1 µM): 0.0045
increase in dead-cell fraction ([1]; 0.3162 µM): 0.0085
increase in dead-cell fraction ([1]; 1 µM): 0.0121
increase in dead-cell fraction ([1]; 3.162 µM): 0.0229
increase in dead-cell fraction ([1]; 10 µM): 0.0663
increase in dead-cell fraction ([2]; 0.001 µM): -0.0042
increase in dead-cell fraction ([2]; 0.003162 µM): -0.0045
increase in dead-cell fraction ([2]; 0.01 µM): -0.0076
increase in dead-cell fraction ([2]; 0.03162 µM): -0.0013
increase in dead-cell fraction ([2]; 0.1 µM): -0.006
increase in dead-cell fraction ([2]; 0.3162 µM): -0.0065
increase in dead-cell fraction ([2]; 1 µM): -0.0104
increase in dead-cell fraction ([2]; 3.162 µM): -0.0015
increase in dead-cell fraction ([2]; 10 µM): 0.0283
increase in dead-cell fraction ([3]; 0.0003162 µM): -0.0028
increase in dead-cell fraction ([3]; 0.001 µM): 0.0004
increase in dead-cell fraction ([3]; 0.003162 µM): -0.0023
increase in dead-cell fraction ([3]; 0.01 µM): 0.0019
increase in dead-cell fraction ([3]; 0.03162 µM): -0.005
increase in dead-cell fraction ([3]; 0.1 µM): 0.0014
increase in dead-cell fraction ([3]; 0.3162 µM): -0.0028
increase in dead-cell fraction ([3]; 1 µM): 0.0026
increase in dead-cell fraction ([3]; 3.162 µM): 0.0055
increase in dead-cell fraction ([4]; 0.001 µM): 0.0018
increase in dead-cell fraction ([4]; 0.003162 µM): -0.0052
increase in dead-cell fraction ([4]; 0.01 µM): 0.0039
increase in dead-cell fraction ([4]; 0.03162 µM): 0.0167
increase in dead-cell fraction ([4]; 0.1 µM): 0.0116
increase in dead-cell fraction ([4]; 0.3162 µM): 0.0089
increase in dead-cell fraction ([4]; 1 µM): 0.0192
increase in dead-cell fraction ([4]; 3.162 µM): 0.029
increase in dead-cell fraction ([4]; 10 µM): 0.475
increase in dead-cell fraction ([5]; 0.0003162 µM): 0.0026
increase in dead-cell fraction ([5]; 0.001 µM): 0.0005
increase in dead-cell fraction ([5]; 0.003162 µM): 0.002
increase in dead-cell fraction ([5]; 0.01 µM): -0.0007
increase in dead-cell fraction ([5]; 0.03162 µM): 0.0044
increase in dead-cell fraction ([5]; 0.1 µM): 0.0093
increase in dead-cell fraction ([5]; 0.3162 µM): 0.0044
increase in dead-cell fraction ([5]; 1 µM): 0.0158
increase in dead-cell fraction ([5]; 3.162 µM): 0.0733
increase in dead-cell fraction ([6]; 0.0001 µM): -0.0005
increase in dead-cell fraction ([6]; 0.0003162 µM): 0.0028
increase in dead-cell fraction ([6]; 0.001 µM): -0.0033
increase in dead-cell fraction ([6]; 0.003162 µM): -0.0053
increase in dead-cell fraction ([6]; 0.01 µM): -0.0021
increase in dead-cell fraction ([6]; 0.03162 µM): 0.113
increase in dead-cell fraction ([6]; 0.1 µM): 0.187
increase in dead-cell fraction ([6]; 0.3162 µM): 0.19
increase in dead-cell fraction ([6]; 1 µM): 0.213
increase in dead-cell fraction ([7]; 0.001 µM): -0.0001
increase in dead-cell fraction ([7]; 0.003162 µM): -0.0049
increase in dead-cell fraction ([7]; 0.01 µM): -0.0091
increase in dead-cell fraction ([7]; 0.03162 µM): -0.0001
increase in dead-cell fraction ([7]; 0.1 µM): 0.0131
increase in dead-cell fraction ([7]; 0.3162 µM): 0.0012
increase in dead-cell fraction ([7]; 1 µM): -0.0011
increase in dead-cell fraction ([7]; 3.162 µM): 0.005
increase in dead-cell fraction ([7]; 10 µM): 0.0126
increase in dead-cell fraction ([8]; 0.0001 µM): -0.0004
increase in dead-cell fraction ([8]; 0.0003162 µM): -0.0097
increase in dead-cell fraction ([8]; 0.001 µM): 0.0015
increase in dead-cell fraction ([8]; 0.003162 µM): 0
increase in dead-cell fraction ([8]; 0.01 µM): 0.003
increase in dead-cell fraction ([8]; 0.03162 µM): -0.0033
increase in dead-cell fraction ([8]; 0.1 µM): 0.0477
increase in dead-cell fraction ([8]; 0.3162 µM): 0.199
increase in dead-cell fraction ([8]; 1 µM): 0.186
increase in dead-cell fraction ([9]; 0.0001 µM): -0.0047
increase in dead-cell fraction ([9]; 0.0003162 µM): -0.0031
increase in dead-cell fraction ([9]; 0.001 µM): -0.0014
increase in dead-cell fraction ([9]; 0.003162 µM): -0.0053
increase in dead-cell fraction ([9]; 0.01 µM): 0.0031
increase in dead-cell fraction ([9]; 0.03162 µM): 0.0436
increase in dead-cell fraction ([9]; 0.1 µM): 0.123
increase in dead-cell fraction ([9]; 0.3162 µM): 0.225
increase in dead-cell fraction ([9]; 1 µM): 0.432
increase in dead-cell fraction ([10]; 0.0001 µM): 0.003
increase in dead-cell fraction ([10]; 0.0003162 µM): -0.0035
increase in dead-cell fraction ([10]; 0.001 µM): -0.0003
increase in dead-cell fraction ([10]; 0.003162 µM): -0.0025
increase in dead-cell fraction ([10]; 0.01 µM): -0.0027
increase in dead-cell fraction ([10]; 0.03162 µM): -0.0044
increase in dead-cell fraction ([10]; 0.1 µM): -0.0014
increase in dead-cell fraction ([10]; 0.3162 µM): 0.0342
increase in dead-cell fraction ([10]; 1 µM): 0.348
GR value ([11]; 0.0003162 µM): 1.02 GR
GR value ([11]; 0.001 µM): 1.02 GR
GR value ([11]; 0.003162 µM): 1.01 GR
GR value ([11]; 0.01 µM): 0.898 GR
GR value ([11]; 0.03162 µM): 0.762 GR
GR value ([11]; 0.1 µM): 0.675 GR
GR value ([11]; 0.3162 µM): 0.537 GR
GR value ([11]; 1 µM): 0.223 GR
GR value ([11]; 3.162 µM): 0.0191 GR
GR value ([12]; 0.0001 µM): 0.984 GR
GR value ([12]; 0.0003162 µM): 1.06 GR
GR value ([12]; 0.001 µM): 1.11 GR
GR value ([12]; 0.003162 µM): 0.868 GR
GR value ([12]; 0.01 µM): 0.532 GR
GR value ([12]; 0.03162 µM): -0.0495 GR
GR value ([12]; 0.1 µM): -0.397 GR
GR value ([12]; 0.3162 µM): -0.435 GR
GR value ([12]; 1 µM): -0.711 GR
